Assay results as given in patent publication US8222275B2, “Biarylcarboxyarylamides as vanilloid-1 receptor modulators” (Pharmeste S.R.L., priority 2006, dated 2012).

Tests used:
[1] = target: T1, TRPV1 expressed in rat spinal cord (Rattus norvegicus, UniProt O35433); assay: Radioligand binding assay, [3H]-RTX, rat spinal cord membranes
T1 construct: TRPV1 expressed in rat spinal cord; from tissue; host or cells: rat (Sprague-Dawley) spinal cord membranes
Description: Radioligand Binding Assay
Male Sprague-Dawley rats with body weight between 250 to 350 g at the time for testing were used. For binding assays rats were sacrificed by decapitation under anesthesia and the spinal cord was removed and disrupted using a Polytron tissue homogenizer in ice cold buffer containing 5 mM KCl, 5.8 mM NaCl, 0.75 mM CaCl2, 2 mM MgCl2, 320 mM sucrose, 10 mM Hepes, pH 8.6.^5 The homogenized tissue was centrifuged at 1000×g for 10 min at 4° C. and the supernatant was centrifuged again at 35000×g for 30 min at 4° C. (Beckman Avanti J25). The pellet was resuspended in the same buffer as described above and used in binding experiments. In saturation experiments, 150 μg protein/sample from membrane suspensions were incubated with [^3H]-Resiniferatoxin ([^3H]-RTX) (0.003-3 nM) in the assay buffer containing 0.25 mg/ml fatty acid-free bovine serum albumin at 37° C. for 60 min. […]
Non specific binding was evaluated in the presence of 1 μM RTX. […] The tip of the microcentrifuge tube containing the pellet was cut off and the radioactivity was determined by scintillation counting (Packard 2500 TR). Protein concentration was determined according to a Bio-Rad method with bovine serum albumin as a standard reference (Bradford, 1976). Saturation and competition studies were analyzed with the Ligand program.^6

[2] = target: T2, TRPV1 expressing dorsal root ganglia neurons (Rattus norvegicus, UniProt O35433); assay: Ca2+ fluorescence measurements in cultured rat dorsal root ganglia neurones; type: cell-based; settings: 0.1 μM capsaicin, mean and 95% fiducial limits, read-out: IC50 for inhibition of capsaicin-evoked [Ca2+]i mobilization
T2 construct: Dorsal root ganglia were removed and placed in cold phosphate buffered solution; endogenous in cells; host or cells: primary cultured rat dorsal root ganglia neurons
Description: Ca^2+ Fluorescence Measurements in Cultured Rat Dorsal Root Ganglia Neurones
Adults rats were terminally anaesthetized and decapitated. Dorsal root ganglia were removed and placed in cold phosphate buffered solution (PBS) before being transferred to collagenase (10 mg/ml), trypsin (5 mg/ml) and DNAse (1 mg/ml) for 35 min at 37° C. The ganglia, placed in cold DMEM supplemented with 10% fetal bovine serum, 2 mM L-glutamine, 100 U/ml penicillin and 100 μg/ml streptomycin, were dissociated in single cells by several passages through a series of syringe needles (23 G down to 25 G). The medium and the ganglia were filtered to remove debris, topped up with 8 ml of DMEM medium and centrifuged (200×g for 5 min). The final cell pellet was re-suspended in DMEM medium [supplemented with 100 ng/ml mouse Nerve Growth Factor (mouse-NGF-7S) and cytosine-β-D-arabinofuranoside free base (ARA-C) 2.5 μM]. […] Fura-2-AM-ester was excited at […] to indicate relative [Ca^2+]i changes by the F340/F380 ratio recorded with a dynamic image analysis system (Laboratory Automation 2.0, RCS, Florence, Italy) and the cells were allowed (at least 10 min) to attain a stable fluorescence before beginning the experiment. […]

[3] = system: capsaicin-induced tactile allodynia; assay: Capsaicin-induced secondary allodynia in rat; type: in vivo; settings: 30 μmol/kg oral 2 hours prior to capsaicin (20 nmols/50 μl/paw), evaluated 90 min after challenge
Description: Capsaicin-Induced Secondary Allodynia in Rat
Capsaicin (20 nmols/50 μl/paw) was injected in the plantar surface of the glabrous skin of the right paw of rats anesthetized with diethyl ether (Chaplan et al., 1994). Compound V394 was orally administrated (30 μmol/kg) 2 hours prior to capsaicin injection. Tactile allodynia was evaluated 90 min after capsaicin challenge.

T1 sequence (O35433 whole entry): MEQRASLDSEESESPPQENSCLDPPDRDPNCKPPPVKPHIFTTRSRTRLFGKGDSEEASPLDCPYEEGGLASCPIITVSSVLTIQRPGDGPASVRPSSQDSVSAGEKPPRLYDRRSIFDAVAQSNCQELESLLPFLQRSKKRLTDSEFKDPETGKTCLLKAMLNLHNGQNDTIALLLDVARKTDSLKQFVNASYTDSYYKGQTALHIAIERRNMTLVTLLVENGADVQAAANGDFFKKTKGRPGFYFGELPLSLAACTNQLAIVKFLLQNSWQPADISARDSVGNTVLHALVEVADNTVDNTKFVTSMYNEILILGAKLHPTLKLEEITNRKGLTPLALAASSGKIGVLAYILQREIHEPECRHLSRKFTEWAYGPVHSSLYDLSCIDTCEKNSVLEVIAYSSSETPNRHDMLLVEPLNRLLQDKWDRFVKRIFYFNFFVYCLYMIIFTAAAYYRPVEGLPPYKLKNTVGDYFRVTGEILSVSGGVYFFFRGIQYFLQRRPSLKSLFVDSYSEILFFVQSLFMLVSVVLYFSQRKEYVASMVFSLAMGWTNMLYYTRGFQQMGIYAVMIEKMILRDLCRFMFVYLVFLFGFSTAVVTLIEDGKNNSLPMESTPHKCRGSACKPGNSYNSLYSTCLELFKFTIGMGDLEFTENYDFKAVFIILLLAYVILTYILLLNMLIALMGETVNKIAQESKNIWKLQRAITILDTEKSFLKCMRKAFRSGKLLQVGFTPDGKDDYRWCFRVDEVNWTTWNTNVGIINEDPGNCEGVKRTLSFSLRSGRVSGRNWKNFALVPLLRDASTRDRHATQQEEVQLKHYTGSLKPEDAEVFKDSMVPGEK
T2 sequence (O35433 whole entry): as above

SMILES	Ki ([1]; [3H]RTX 0.4 nM, 37° C. 60 min, 95% fiducial limits in brackets, read-out: Ki value, competition binding of [3H]-RTX) [nM]	IC50 [2] [nM]	preventive effect against the pro-allodinic effect of capsaicin [3] [%]	melting point [°C]	Kd ([1]; saturation experiments, [3H]-RTX 0.003-3 nM, read-out: KD value, saturation curve of [3H]-RTX) [nM]
O=C(Nc1ccc(Cl)cc1)c1ccc(-c2cccc3cnccc23)nc1 [V394, N-(4-chlorophenyl)-6-(isoquinolin-5-yl)pyridine-3-carboxamide]	15	0.83	55	258	
C=C(C)[C@]12C[C@@H](C)[C@@]34O[C@](Cc5ccccc5)(O[C@@H]1[C@@H]3C=C(COC(=O)Cc1ccc(O)c(OC)c1)C[C@]1(O)C(=O)C(C)=C[C@@H]41)O2 [[^3H]-RTX, [^3H]-Resiniferatoxin, reference compound]					0.21
